Data reported in patent US12644203B2, “Cellular phenotype screening method” (ThinkCyte, Inc., priority 2020, dated 2026).

Columns and labels:
Assay type in all cases: cell-based
[1] = test system: nuclear localization of NF-κB induced by LPS in THP1 cells; assay: Cellular phenotype screening in a 96-well microplate: imaging cell sorter sorting, then enrichment of first barcode nucleic acid sequences; conditions: sorted for absence of NF-κB nuclear localization under LPS stimulation; value above 1 = more concentrated than before sorting; TAK242 at 30 μM; FIG. 21
Description: In accordance with the schematic diagram illustrated in FIG. 18, a search was carried out for test targets which cause a desired phenotypic change (in the example of FIG. 18, test substances which inhibit nuclear localization of NF-κB induced by LPS).
Specifically, in each well of a 96-well microplate, the first barcode nucleic acids were attached to cells (THP1 cells) according to the method described in Reference Example 1 and further brought into contact with test substances. At this time, different types and concentrations of the test substance and different types of the first barcode nucleic acids were used in each well. Due to this, 96 types of test targets (24 types of test substances×4 types of concentrations) were associated with 96 types of first barcode nucleic acids which are attached to the cells (THP1 cells). […]
Next, in the same manner as the examples described above, a single cell analysis was performed on the cell mixture solution sorted and recovered by the imaging cell sorter. Specifically, when reading out the DNA barcodes modifying each cell and cell-derived genetic information, the Chromium Controller apparatus and the Single Cell 3′ Reagent Kit v3 manufactured by 10× Genomics, which is a single cell analysis technology using a droplet technique as in Example 5 and Example 6, were used. […]

[2] = test system: nuclear localization of NF-κB in THP1 cells; assay: Nuclear localization score of sorted cells by image flow cytometry; conditions: cells treated with LPS and test substance (TAK242 30 μM); higher value indicates higher degree of nuclear localization; FIG. 22
Description: The photographic images of the cells were captured by an image flow cytometry and the nuclear localization scores were also calculated by the imaging flow cytometry. Regarding the nuclear localization scores, a higher value indicates a higher degree of nuclear localization.

[3] = test system: NFκB protein nuclear localization in THP1 cells; assay: NFκB protein localization by immunostaining and fluorescent light microscope in cells treated with the drug; conditions: LPS 2 μg/mL, 2 hours at 37 degrees, fluorescent light microscope, FIG. 7
Description: Next, cells collected by centrifugation in advance were added to the tube 1 and incubated. The cells used at this time were THP1 cells and the cell concentration was set to 1×10^7 cells/mL. The incubation was carried out for 5 minutes at room temperature.
Cells were resuspended in RPM1-1640 medium with 10% FBS and 50 μM 2-mercaptoethanol in the tube 1 and the tube 2, respectively. Next, as a drug, lipopolysaccharide (LPS) suspended in dimethyl sulfoxide (DMSO) was added to tube 1 only, at a final concentration of 2 μg/mL. In the tube 2, only DMSO, the solvent for the drug, was added. Next, the tube 1 and the tube 2 were incubated for 2 hours at 37 degrees in CO2, respectively. Through the experiment up to here, the drug condition whether the drug LPS is present or not, was respectively associated to each of the cells by corresponding each cell to the first barcode nucleic acid type A or the second barcode nucleic acid type B.
Next, some cells were collected from the tube 1 and the tube 2, respectively. […]

Row | Molecule | enrichment level of the first barcode nucleic acid sequence of the sorted cells [1] | nuclear localization score [2] | localization of NFκB protein [3]
1 | CCOC(=O)C1=CCCC[C@H]1S(=O)(=O)Nc1ccc(F)cc1Cl [TAK242] | approximately 1.5 fold | 0.92 | 
2 | C=C1C(=O)O[C@@H]2/C=C(\C)CC/C=C(\C)CC[C@@H]12 [Costunolide] | significantly enriched | 0.23 | 
3 | lipopolysaccharide [LPS] |  | 0.30 | almost all of the NFκB protein was localized in the nucleus
